Measurements as given in article PMC3923439, “Anti-inflammatory properties of a novel peptide interleukin 1 receptor antagonist” (Journal of Neuroinflammation, 2014).

How the values were obtained:
[1] = tested on: LPS-induced neuroinflammation; assay: Lipopolysaccharide-induced impairment of social behavior; type: in vivo; details: rat, Ana 100 mg/kg s.c.
Procedure: The peripheral administration of LPS, the active fragment of bacterial endotoxin, results in an increase in the plasma levels of all proinflammatory cytokines and behavioral depression. LPS-induced behavioral depression was assessed by measuring the reduction of the duration of social interaction during 4-minute sessions. Six- to seven-week-old rats were handled for five days, habituated to the test cages and the experiment room and trained for social interaction with three-week-old juvenile rats introduced into the test cage for four minutes two days before the actual experiment. On the day of the experiment, the rats were intraperitoneally injected (i.p.) with saline or LPS (Escherichia coli 0111:B4; Sigma-Aldrich) dissolved in saline (250 μg/kg). Immediately after the i.p. injection, Ilantide-t (Ila; 10 mg/kg, equivalent to 2.1 μmol/kg), Ana ([…], equivalent to 5.8 μmol/kg) or saline was injected subcutaneously. The volume of all of the injections was 1.0 ml/kg. Six experimental groups were used: vehicle i.p./vehicle s.c. (veh/veh; n = 10), vehicle i.p./Ilantide-t s.c. (veh/Ila; n = 8), vehicle i.p./Ana s.c. (veh/Ana; n = 9), LPS i.p./vehicle s.c. (LPS/veh; n = 10), LPS i.p./Ilantide-t s.c. (LPS/Ila; n = 11) and LPS i.p./Ana s.c. (LPS/Ana; n = 11). The injections and weighing of the rats were performed immediately after the first test session (0 h), and the animals were tested and weighed again 2, 4, 6, 8, and 24 hours later. Different juvenile animals were presented on each occasion. Social interaction consisted of anogenital sniffing, licking and chewing the fur of the juveniles by the experimental animals and was monitored with a video camera. […] The duration of social interaction at each time point is expressed as the percentage of baseline values and was averaged for each experimental group. Social interaction was scored by an observer who was blinded to the treatment of the animals. For evaluation of levels of pro- and anti-inflammatory cytokines in blood, rats were injected with LPS and then immediately with either vehicle (n = 8) or Ilantide-t (n = 8) as described above. In addition, a control group of animals (n = 4) was treated with Ilantide-t alone (control). Blood samples were collected at 0, 2 and 6 hours after injections as described for the pharmacokinetics study and stored at -20°C until use. The levels of IL-6, IFN-γ and IL-10 were determined using corresponding rat ELISA kits according to the manufacturer’s protocols (all from BD Biosciences, San Diego, CA, USA).

[2] = tested on: neonatal rat pancreatic islets; assay: IL-1β-induced nitric oxide production (nitrite, Griess reagent); type: cell-based; details: nitrites in supernatants of the apoptosis experiments, four independent experiments
Procedure: (§1) For cell death detection, rat islets were incubated with 150 pg/ml IL-1β (BD Pharmingen, San Diego, CA, USA) alone or in combination with various concentrations of Ana and Ilantide for 24 hours at 37°C in humidified atmospheric air. Rat islet cell death was assessed by cell death detection ELISA (Roche, Lund, Sweden) as previously described. As a surrogate measure of nitric oxide production, Griess reagent (1:1 aqueous mixture of 0.1% naphthylethylenediamine hydrochloride and 1% sulfanilamide + 5% H3PO4) was mixed in a 1:1 ratio with 100 μl of supernatant samples to determine the nitrite content in supernatants from the cell death assays described above.
Figure 8 Effect of Ilantide on interleukin 1β-induced nitric oxide production. Anakinra (A) but none of the peptides, Ilantide-m (B) or Ilantide-t (C), inhibited interleukin 1β (IL-1β)-induced nitric oxide production. The results of four independent experiments are shown. *P < 0.05 and **P < 0.01 compared with cultures treated with IL-1 alone (one-way analysis of variance followed by Dunnett’s post hoc test).

[3] = tested on: neonatal rat pancreatic islets; assay: IL-1β-induced rat islet cell apoptosis (cell death detection ELISA); type: cell-based; details: rat islets, 8.68 nM (150 pg/ml) IL-1β, 24 hours
Procedure: Neonatal rat islets were isolated from 3- to 6-day-old outbred Wistar rats (Taconic, Ejby, Denmark) as previously described. Islets were precultured and maintained in RPMI 1640 medium (Gibco/Life Technologies) supplemented with 20 mmol/L HEPES buffer, 0.038% (wt/vol) NaHCO3, 100 U/ml penicillin, 100 µg/ml streptomycin and 10% (vol/vol) newborn calf serum (NCS) at 37°C in humidified atmospheric air. Prior to experimentation, the islets were randomly distributed to 24-well dishes and incubated for 2 hours in RPMI 1640 medium supplemented as described above, but with 0.5% (vol/vol) NCS relevant reagents were added as indicated.
as §1
Figure 7 Effect of Ilantide on interleukin 1β-induced rat islet cell apoptosis. Rat pancreatic islets were preincubated for 30 minutes in the absence or presence of various concentrations of anakinra (A), Ilantide-m (B) or Ilantide-t (C) and then exposed to […] interleukin 1β (IL-1β) for 24 hours. Cytokine-induced apoptosis was determined by cell death detection enzyme-linked immunosorbent assay. Apoptosis rates are presented as fold induction compared with untreated control islets (white bars). The data from four independent experiments are presented as mean ± SEM. *P < 0.05 and **P < 0.01 compared with cultures treated with IL-1β alone (one-way analysis of variance followed by Dunnett’s post hoc test).

## Ana: recombinantly produced N-terminal methionylated, nonglycosylated version of human IL-1Ra [reference compound]
[1]; 24 hours after LPS 250 μg/kg i.p., Ilantide-t 10 mg/kg, P < 0.05
  Effect on LPS-induced body weight decrease: attenuated the anorexigenic effect of LPS
[1]; Ilantide-t 10 mg/kg s.c., vehicle i.p.
  Social behavior per se (without LPS): did not modify social behavior per se
[1]; LPS 250 μg/kg i.p., Ilantide-t 10 mg/kg s.c., 2 to 24 hours
  Effect on LPS-induced depression of social activity (sickness behavior): No significant effect
[2]
  Inhibition of IL-1β-induced nitric oxide production: inhibited
[3]
  Concentration giving maximal inhibition of IL-1β-induced apoptosis: 86.8 µM
[3]; 30 minutes preincubation, four independent experiments
  Maximal inhibition of IL-1β-induced apoptosis: 64%
